Reference: ChEMBL document CHEMBL1201862, “PubChem BioAssay data set” (2004)
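The compound was tested at five concentrations on cells cultured in 96-well plates, with a 48-hour exposure period. At the GI50, growth is halved.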 Active and inactive are the calls of the source. No stated cut-off is given here; in the data, active = GI50 up to about 1.1 µM and inactive = higher.

Key:
Assay in all cases: growth of human tumour cells (NCI), 48 h
786-0 = system: 786-0
CCRF-CEM = system: CCRF-CEM
HCT-15 = system: HCT-15
LOX IMVI = system: LOX IMVI
OVCAR-3 = system: OVCAR-3
OVCAR-4 = system: OVCAR-4
SF-539 = system: SF-539
SK-MEL-28 = system: SK-MEL-28
SK-OV-3 = system: SK-OV-3
SN12C = system: SN12C
SNB-75 = system: SNB-75
SW-620 = system: SW-620
HOP-92 = system: HOP-92
SNB-19 = system: SNB-19

SMILES	GI50 (786-0)	GI50 (CCRF-CEM)	GI50 (HCT-15) [µM]	GI50 (LOX IMVI)	GI50 (OVCAR-3)	GI50 (OVCAR-4)	GI50 (SF-539)	GI50 (SK-MEL-28)	GI50 (SK-OV-3)	GI50 (SN12C)	GI50 (SNB-75)	GI50 (SW-620)	GI50 (HOP-92)	GI50 (SNB-19)
CC(Oc1ccc(OCC2CCCCC2)cc1)C(=O)O (stereo unspecified)	> 100 µM (inactive)	> 100 µM (inactive)	> 100	> 100 µM (inactive)	> 100 µM (inactive)	> 100 µM (inactive)	> 100 µM (inactive)	> 100 µM (inactive)	> 100 µM (inactive)	> 100 µM (inactive)	> 100 µM (inactive)	> 100 µM (inactive)		
O=C1c2cccc3cc([N+](=O)[O-])cc(c23)C(=O)N1CCNCCNCCNCCN1C(=O)c2cccc3cc([N+](=O)[O-])cc(c23)C1=O	< 0.001 µM (active)	0.00122 µM (active)	0.01		0.109 µM (active)	0.0117 µM (active)	0.00547 µM (active)	0.0311 µM (active)	0.0212 µM (active)	0.00251 µM (active)	0.0108 µM (active)	< 0.001 µM (active)	0.00343 µM (active)	< 0.001 µM (active)
CC(=O)OC1CCC2C(=CCC3C2(C)C(=O)CC2(C)C(C4(C)OC(C(C)C)=CC4=O)C(O)CC32C)C1(C)C (stereo unspecified)	> 100 µM (inactive)	31 µM (inactive)	30.2		> 10 µM (inactive)		18.1 µM (inactive)		35.7 µM (inactive)	54.5 µM (inactive)	28.4 µM (inactive)	41 µM (inactive)	41.3 µM (inactive)	> 100 µM (inactive)
c1ccc(C(c2ccccc2)c2ccncc2)cc1	> 100 µM (inactive)	> 100 µM (inactive)	> 100	> 100 µM (inactive)	> 100 µM (inactive)	> 100 µM (inactive)	> 100 µM (inactive)	> 100 µM (inactive)	> 100 µM (inactive)	> 100 µM (inactive)	18 µM (inactive)	> 100 µM (inactive)		> 100 µM (inactive)
O=C(Nc1ccccc1[N+](=O)[O-])C(=O)C(C(=O)c1ccccc1-c1ccccc1)C1OC(=O)c2ccccc21 (stereo unspecified)	14.7 µM (inactive)	13.5 µM (inactive)	15.9	16.3 µM (inactive)	14 µM (inactive)	24.1 µM (inactive)	11.6 µM (inactive)	18.2 µM (inactive)	30.8 µM (inactive)	14.6 µM (inactive)	16.9 µM (inactive)	18.5 µM (inactive)		13.6 µM (inactive)
CCOC(=O)NC/C=C/CO	> 100 µM (inactive)	> 100 µM (inactive)	> 100			> 100 µM (inactive)	> 100 µM (inactive)	> 100 µM (inactive)	> 100 µM (inactive)	> 100 µM (inactive)	> 100 µM (inactive)	> 100 µM (inactive)		> 100 µM (inactive)
Oc1cc2c(cc1O)-c1[nH]ncc1CC2	39.6 µM (inactive)	11.4 µM (inactive)	54.1	33.5 µM (inactive)			22.4 µM (inactive)	58.3 µM (inactive)	22.5 µM (inactive)	49 µM (inactive)	16.6 µM (inactive)	35.4 µM (inactive)	14.4 µM (inactive)	46.8 µM (inactive)
CCc1cccc(C(C)C)c1NC(=O)CCl	> 100 µM (inactive)	37.1 µM (inactive)	> 100	80.7 µM (inactive)	> 100 µM (inactive)		> 100 µM (inactive)	> 100 µM (inactive)	> 100 µM (inactive)	> 100 µM (inactive)	37.5 µM (inactive)	> 100 µM (inactive)	> 100 µM (inactive)	28.1 µM (inactive)
COc1cc(/C=C/c2ccncc2)cc(OC)c1OC	72.4 µM (inactive)	42.9 µM (inactive)	49.4	72.4 µM (inactive)	94.2 µM (inactive)	76.9 µM (inactive)	> 100 µM (inactive)	> 100 µM (inactive)		96.2 µM (inactive)	39.2 µM (inactive)	> 100 µM (inactive)	29.9 µM (inactive)	> 100 µM (inactive)
